Source: patent US20260200892A1, “CANNABINOID RECEPTOR 2 MODULATORS” (Hoffmann-La Roche Inc., priority 2023, published 2026)
Read-outs that look alike come from different tables or passages of the source.

Legend:
[1] = molecular target: T1, human CB2 receptor (hCB2R) (Homo sapiens, UniProt P34972); test: TR-FRET hCB2R binding assay
T1 construct: expressed in transfected cells; membranes

[2] = molecular target: T2, CB2 receptor (hCB2R), CHO cell line stably overexpressing CB2 receptor (Homo sapiens, UniProt P34972); test: cAMP hCB2R functional assay (HTRF); assay type: cell-based; conditions: CHO cells overexpressing CB2 receptor, forskolin; for EC50: means ± SEM of 2-3 independent experiments; for Functionality: normalized to Emax of CP55940 (100%)
T2 construct: expressed in transfected cells; host or cells: CHO cell line stably overexpressing CB2 receptor (G418 selection)
Procedure: cAMP hCB2R Functional Assay
The Homogeneous Time Resolved Fluorescence (HTRF) Assays
The homogeneous time-resolved fluorescence (HTRF) cAMP assay was conducted according to the manufacturer's protocol for the cAMP-Gs Dynamic kit (Cisbio). Briefly, the CHO cell line stably overexpressing CB2 receptor were maintained in Ham's F12 supplemented with 10% FBS, 100 U/ml penicillin and 100 μg/ml streptomycin (Gibco-ThermoFisher) and 400 μg/ml G418 (ThermoFisher). For CB2 compounds test, harvest the cells with Cell Dissociation Buffer and re-suspend the cells in F-12 K at 0.4*10^6 cells/mL, and dispense cells into 384-well low volume plates at 2000 cells/5 μL per well. The cells were stimulated with compounds diluted in Stimulation Buffer (2.5 μL/well) for 15 min at room temperature. And then followed by the addition of 2.5 μL 25 μM forsklin. After 15 mins incubation, reactions were stopped by 5 μL/well cAMP-d2 conjugate working solution followed by 5 μL/well of anti-cAMP cryptate working solution. After incubation for 1 h at room temperature, the plates were read in a PerkinElmer Envision reader for time-resolved fluorescence resonance energy transfer detection at 620 nm and 665 nm.
Quantification and Statistical Analysis
All HTRF ratio data sets of test compounds were normalized to the Emax of CP55940 (100%) and obtained the means±standard error of the mean (SEM) of 2-3 independent experiments performed in technical replicates.

[3] = TR-FRET, membranes of SNAP-tagged human CB2R HEK293-TR cells, 100 μM GppNHp, nonspecific binding with SR144528, read-out: Kd hCB2R

T1 sequence (P34972 whole entry): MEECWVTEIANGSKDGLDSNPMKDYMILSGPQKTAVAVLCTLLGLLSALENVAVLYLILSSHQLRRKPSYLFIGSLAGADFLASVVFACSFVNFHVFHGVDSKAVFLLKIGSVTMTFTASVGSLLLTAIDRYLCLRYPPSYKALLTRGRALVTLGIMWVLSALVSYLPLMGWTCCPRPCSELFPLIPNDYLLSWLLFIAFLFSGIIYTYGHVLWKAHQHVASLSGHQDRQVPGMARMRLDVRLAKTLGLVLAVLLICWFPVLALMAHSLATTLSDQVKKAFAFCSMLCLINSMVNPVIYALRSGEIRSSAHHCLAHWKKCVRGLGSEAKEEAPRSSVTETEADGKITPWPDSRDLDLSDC
T2 sequence (P34972 whole entry): as above

SMILES | Kd [1, 3] | EC50 [2] | Functionality [2] | Kd [1]
CCN(CC)c1ccc2cc(/C=C/c3ccc(S(=O)(=O)[O-])c[n+]3CCCCCC(=O)NCC3=C[C@H](c4c(OC)cc(C(C)(C)[C@@H](CCCCCN=[N+]=[N-])c5ccccc5)cc4OC)[C@@H]4C[C@H]3C4(C)C)c(=O)oc2c1 [Example 21, 1-(6-((((1S,4S,5S)-4-(4-((S)-8-azido-2-methyl-3-phenyloctan-2-yl)-2,6-dimethoxyphenyl)-6,6-dimethylbicyclo[3.1.1]hept-2-en-2-yl)methyl)amino)-6-oxohexyl)-6-((E)-2-(7-(diethylamino)-2-oxo-2H-chromen-3-yl)vinyl)pyridin-1-ium-3-sulfonate] | 162 nM | 339 nM | inverse agonist | 
COc1cc(C(C)(C)[C@@H](CCCCCN=[N+]=[N-])c2ccccc2)cc(OC)c1[C@H]1C=C(CNC(=O)CCCCCCNc2ccc([N+](=O)[O-])c3nonc23)[C@H]2C[C@@H]1C2(C)C [Example 23, N-(((1S,4S,5S)-4-(4-((S)-8-azido-2-methyl-3-phenyloctan-2-yl)-2,6-dimethoxyphenyl)-6,6-dimethylbicyclo[3.1.1]hept-2-en-2-yl)methyl)-7-((7-nitrobenzo [c][1,2,5]oxadiazol-4-yl)amino)heptanamide] | 158 nM |  | Antagonist | 
COc1cc(C(C)(C)[C@H](CCCCCN=[N+]=[N-])c2ccccc2)cc(OC)c1[C@H]1C=C(CN)[C@H]2C[C@@H]1C2(C)C [Example 15, ((1S,4S,5S)-4-(4-((R)-8-azido-2-methyl-3-phenyloctan-2-yl)-2,6-dimethoxyphenyl)-6,6-dimethylbicyclo[3.1.1]hept-2-en-2-yl)methanamine] | 39.1 nM | 112 nM | inverse agonist | 
C#CCCC(=O)NCC1=C[C@H](c2c(OC)cc(C(C)(C)[C@@H](CCCCCN=[N+]=[N-])c3ccccc3)cc2OC)[C@@H]2C[C@H]1C2(C)C [Example 18, N-(((1S,4S,5S)-4-(4-((S)-8-azido-2-methyl-3-phenyloctan-2-yl)-2,6-dimethoxyphenyl)-6,6-dimethylbicyclo[3.1.1]hept-2-en-2-yl)methyl)pent-4-ynamide] | 2.1 nM | 40.7 nM | inverse agonist | 
CCCCCC(c1ccccc1)C(C)(C)c1cc(OC)c([C@H]2C=C(CNC(=O)CCCCC[n+]3cc(S(=O)(=O)[O-])ccc3/C=C/c3cc4ccc(N(CC)CC)cc4oc3=O)[C@H]3C[C@@H]2C3(C)C)c(OC)c1 (stereo partly drawn) [Example 16, 6-((E)-2-(7-(diethylamino)-2-oxo-2H-chromen-3-yl)vinyl)-1-(6-((((1S,4S,5S)-4-(2,6-dimethoxy-4-(2-methyl-3-phenyloctan-2-yl)phenyl)-6,6-dimethylbicyclo[3.1.1]hept-2-en-2-yl)methyl)amino)-6-oxohexyl)pyridin-1-ium-3-sulfonate] | 214 nM |  |  | 
CCN(CC)c1ccc2cc(/C=C/c3ccc(S(=O)(=O)[O-])c[n+]3CCCCCC(=O)NCC3=C[C@H](c4c(OC)cc(C(C)(C)C(CCCCCN=[N+]=[N-])c5ccccc5)cc4OC)[C@@H]4C[C@H]3C4(C)C)c(=O)oc2c1 (stereo partly drawn) [Example 20, 1-(6-((((1S,4S,5S)-4-(4-(8-azido-2-methyl-3-phenyloctan-2-yl)-2,6-dimethoxyphenyl)-6,6-dimethylbicyclo[3.1.1]hept-2-en-2-yl)methyl)amino)-6-oxohexyl)-6-((E)-2-(7-(diethylamino)-2-oxo-2H-chromen-3-yl)vinyl)pyridin-1-ium-3-sulfonate] | 67.9 nM |  |  | 
COc1cc(C(C)(C)[C@H](CCCCCN=[N+]=[N-])c2ccccc2)cc(OC)c1[C@H]1C=C(CNC(=O)CCCCCNC(=O)CCc2ccc3n2[B-](F)(F)[N+]2=C(c4ccc[nH]4)C=CC2=C3)[C@H]2C[C@@H]1C2(C)C [Example 28, N-(((1S,4S,5S)-4-(4-((R)-8-azido-2-methyl-3-phenyloctan-2-yl)-2,6-dimethoxyphenyl)-6,6-dimethylbicyclo[3.1.1]hept-2-en-2-yl)methyl)-6-(3-(5,5-difluoro-7-(1H-pyrrol-2-yl)-5H-514,614-dipyrrolo[1,2-c:2′,1′-f][1,3,2]diazaborinin-3-yl)propanamido)hexanamide] |  |  |  | 44.7 nM
